The source of these data is ChEMBL document CHEMBL1201862, “PubChem BioAssay data set” (2004).

Molecules are shown by their SMILES.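 Cells were grown in 96-well plates and exposed to each compound for 48 hours at five concentrations; endpoints were interpolated linearly between bracketing concentrations, or set to the highest concentration if not reached. Here, GI50 denotes the concentration required for 50% inhibition of growth.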 Active and inactive are the calls of the source. No stated cut-off is given here; in the data, active = GI50 up to about 1.1 µM and inactive = higher. Where only a bound is given, the exact number is not on record here.

Test systems include COLO 205; HCT-15; HL-60; HOP-62; Hs-578T; MDA-MB-435; MOLT-4; Malme-3M; NCI-H226; NCI-H23; OVCAR-3; OVCAR-5; PC-3; RPMI-8226; SF-268; SK-MEL-2; SW-620; U-251; UO-31.
Holding throughout (assay): growth of human tumour cells (NCI), 48 h

For the compound `CCCCC(Sc1cc(Cl)c(C)cc1S(=O)(=O)Nc1nc(N)n[nH]1)C(=O)OC` (stereo not drawn), the GI50 in the assay with COLO 205 is > 10 µM (inactive); in the assay with HCT-15 it was over 10 µM; in the assay with HL-60, > 10 µM (inactive); in the assay with HOP-62 it was > 10 µM (inactive); with Hs-578T, > 10 µM (inactive); in the assay on MDA-MB-435, > 10 µM (inactive). Moreover, the GI50 in the assay on MOLT-4, with Malme-3M, in the assay on NCI-H226, in the assay with NCI-H23, in the assay on OVCAR-3 and in the assay on OVCAR-5 was > 10 µM (inactive) throughout. The GI50 with PC-3, in the assay with RPMI-8226, with SF-268, in the assay with SK-MEL-2, with SW-620 and in the assay on U-251 was > 10 µM (inactive) in each case.

Turning to `Clc1ccc(OCc2nnc(COc3ccc(OCc4nnc(COc5ccc(Cl)cc5Cl)o4)c(Cl)c3)o2)c(Cl)c1`, the GI50 in the assay with COLO 205 is 24.4 µM (inactive); in the assay with HCT-15 it was 89.7 µM; with HL-60, 23.1 µM (inactive); in the assay on HOP-62 it was 51.6 µM (inactive); with Hs-578T, 42.5 µM (inactive); with MDA-MB-435 it was 42.7 µM (inactive). For the same compound, the GI50 with Malme-3M is 37.6 µM (inactive); in the assay on NCI-H226, 36.2 µM (inactive); in the assay with NCI-H23, 48.1 µM (inactive); in the assay with OVCAR-3 it was 25.2 µM (inactive); in the assay on OVCAR-5, 36.2 µM (inactive); in the assay on PC-3 it was 29.9 µM (inactive). The GI50 in the assay with RPMI-8226 is 17.3 µM (inactive); with SF-268 it was 23.5 µM (inactive); in the assay with SK-MEL-2 it was 33.8 µM (inactive); with SW-620 it was 70.1 µM (inactive); with U-251, 23 µM (inactive); in the assay on UO-31, 17.9 µM (inactive).

On to `O=[N+]([O-])C[C@@]12O[C@]3(O)C4C5CC(C6C5C3C61)C42` (stereo partly drawn), for which the GI50 in the assay on COLO 205 is > 100 µM (inactive); in the assay on HCT-15, over 100 µM; in the assay on HL-60, > 100 µM (inactive); in the assay on HOP-62, > 100 µM (inactive); with Hs-578T, > 100 µM (inactive); in the assay with MDA-MB-435, > 100 µM (inactive). Further, the GI50 in the assay with MOLT-4, in the assay with Malme-3M, in the assay with NCI-H226, in the assay on NCI-H23, with OVCAR-3 and in the assay with OVCAR-5 was > 100 µM (inactive) each time. Further, the GI50 in the assay on PC-3, in the assay with RPMI-8226, with SF-268, in the assay on SK-MEL-2, in the assay on SW-620 and in the assay on U-251 was > 100 µM (inactive) each time. Moreover, in the assay on UO-31, the GI50 was > 100 µM (inactive).

In the case of `C1=CCC[C@@H]2CN3CCCC/C=C\CCCC[C@H]4C[C@H](CN(CCCCCCCC1)C4)[C@H]2CC3`, the GI50 in the assay with COLO 205 is 8.28 µM (inactive); with HCT-15, 10.4 µM; in the assay with HL-60, 12 µM (inactive); with HOP-62 it was 8.45 µM (inactive); with Hs-578T, 10.3 µM (inactive); with MDA-MB-435, 8.69 µM (inactive). Besides, the GI50 in the assay on MOLT-4 is 9.79 µM (inactive); with Malme-3M, 9.33 µM (inactive); in the assay on NCI-H226 it was > 50 µM (inactive); with NCI-H23, 13.2 µM (inactive); in the assay on OVCAR-3, 8.07 µM (inactive); in the assay on OVCAR-5, 10.6 µM (inactive). For the same compound, the GI50 is 12.8 µM (inactive) in the assay with PC-3; 8.11 µM (inactive) in the assay on RPMI-8226; 10.5 µM (inactive) with SF-268; 8.61 µM (inactive) in the assay with SK-MEL-2; 9.02 µM (inactive) in the assay with SW-620; 8.51 µM (inactive) in the assay with U-251.

As to `COC1CC2CCC(C)[C@](O)(O2)C(=O)C(=O)N2CCCCC2C(=O)OC(C(C)CC2CCC(O)C(OC)C2)CC(=O)C(C)C=C(C)C(OC(=O)CN(C)C)C(OC)C(=O)C(C)CC(C)/C=C/C=C/C=C\1C` (stereo partly drawn), the GI50 with COLO 205 was 11.3 µM (inactive); with HCT-15 it was 10.4 µM; in the assay on HL-60, 2 µM (inactive); in the assay on HOP-62 it was < 0.01 µM (active); with Hs-578T, < 0.01 µM (active); with MDA-MB-435, 2.69 µM (inactive). Moreover, the GI50 in the assay with MOLT-4 was < 0.01 µM (active); in the assay on Malme-3M it was < 0.01 µM (active); with NCI-H226, 10.3 µM (inactive); in the assay on NCI-H23, 10.9 µM (inactive); with OVCAR-3 it was 9.79 µM (inactive); in the assay with OVCAR-5 it was 12.6 µM (inactive). Moreover, the GI50 in the assay on PC-3 is < 0.01 µM (active); in the assay on RPMI-8226 it was < 0.01 µM (active); in the assay on SF-268, 7.19 µM (inactive); with SK-MEL-2, < 0.0419 µM (active); in the assay on U-251, < 0.01 µM (active); in the assay on UO-31, < 0.01 µM (active).

On to `CCOC(=O)c1cc2ncccc2c2ccccc12`, for which the GI50 was > 100 µM (inactive) in the assay on COLO 205; over 100 µM with HCT-15; > 100 µM (inactive) in the assay with HL-60; > 100 µM (inactive) in the assay with HOP-62; > 100 µM (inactive) in the assay with Hs-578T; > 100 µM (inactive) in the assay with MDA-MB-435. In addition, the GI50 in the assay with MOLT-4, in the assay on Malme-3M, in the assay on NCI-H226, in the assay with NCI-H23, in the assay with OVCAR-3 and with OVCAR-5 was > 100 µM (inactive) each time. Also, the GI50 with PC-3, in the assay with RPMI-8226, in the assay with SF-268, in the assay with SK-MEL-2, in the assay on U-251 and with UO-31 was > 100 µM (inactive) throughout.

`COc1ccc(C2SC(=N)Nc3c2c(C)nn3C(=O)c2ccncc2)cc1OC` (stereo not drawn): the GI50 was > 10 µM (inactive) in the assay with COLO 205; over 10 µM with HCT-15; > 10 µM (inactive) with HL-60; > 10 µM (inactive) with HOP-62; > 10 µM (inactive) in the assay on Hs-578T; > 10 µM (inactive) in the assay with MDA-MB-435. Besides, the GI50 in the assay with MOLT-4, in the assay with Malme-3M, in the assay on NCI-H226, with NCI-H23, with OVCAR-3 and with OVCAR-5 was > 10 µM (inactive) throughout. In addition, the GI50 with PC-3, with RPMI-8226, with SF-268, with SK-MEL-2, in the assay with SW-620 and in the assay with U-251 was > 10 µM (inactive) throughout.

Regarding `CC1=NN(c2ccccc2)C(=O)/C1=C/c1ccc(O)cc1`, the GI50 in the assay on COLO 205 was > 100 µM (inactive); with HCT-15 it was over 100 µM; with HL-60, > 100 µM (inactive); in the assay on Hs-578T, > 100 µM (inactive); in the assay with MDA-MB-435 it was > 100 µM (inactive); in the assay with MOLT-4, > 100 µM (inactive). The GI50 in the assay on Malme-3M, with NCI-H226, with NCI-H23, in the assay with OVCAR-3, in the assay on OVCAR-5 and with PC-3 was > 100 µM (inactive) each time. The GI50 was 61.8 µM (inactive) in the assay on RPMI-8226; > 100 µM (inactive) in the assay with SF-268; > 100 µM (inactive) with SK-MEL-2; > 100 µM (inactive) in the assay on SW-620; > 100 µM (inactive) in the assay on U-251.

In the case of `CN(C)CCCNC(=O)c1c(O)c2ccccc2[nH]c1=O`, the GI50 with COLO 205 is 41.1 µM (inactive); in the assay on HCT-15, over 100 µM; with HL-60 it was > 100 µM (inactive); in the assay with HOP-62, > 100 µM (inactive); with Hs-578T it was > 100 µM (inactive); in the assay with MDA-MB-435 it was > 100 µM (inactive). Besides, the GI50 in the assay with MOLT-4, in the assay on Malme-3M, in the assay with NCI-H226, with NCI-H23, in the assay with OVCAR-3 and in the assay with OVCAR-5 was > 100 µM (inactive) throughout. Moreover, the GI50 in the assay on PC-3 is > 100 µM (inactive); in the assay with RPMI-8226 it was > 100 µM (inactive); in the assay with SF-268, 83.2 µM (inactive); with SK-MEL-2, > 100 µM (inactive); in the assay on SW-620, > 100 µM (inactive); with UO-31, 14.5 µM (inactive).

As to `COc1ccc(C(=O)c2nc3ccccc3nc2N2CCN(c3ccccc3)CC2)cc1OC`, the GI50 in the assay on COLO 205 is > 100 µM (inactive); with HCT-15, over 100 µM; with HL-60, > 100 µM (inactive); with HOP-62, > 100 µM (inactive); in the assay with Hs-578T it was > 100 µM (inactive); in the assay with MDA-MB-435, > 100 µM (inactive). For the same compound, the GI50 in the assay with MOLT-4, in the assay on Malme-3M, in the assay with NCI-H23, in the assay with OVCAR-3, in the assay on OVCAR-5 and in the assay on PC-3 was > 100 µM (inactive) each time. Besides, the GI50 in the assay with RPMI-8226, with SF-268, in the assay on SK-MEL-2, in the assay with SW-620, in the assay on U-251 and in the assay with UO-31 was > 100 µM (inactive) throughout.

Regarding `NC(=O)C(=CNC(=S)Nc1ccccc1)C(N)=O`, the GI50 in the assay with COLO 205 is > 100 µM (inactive); in the assay with HCT-15, over 100 µM; with HL-60, > 100 µM (inactive); in the assay on HOP-62, > 100 µM (inactive); in the assay with Hs-578T, 45 µM (inactive); in the assay on MDA-MB-435, > 100 µM (inactive). For the same compound, the GI50 with MOLT-4 was > 100 µM (inactive); with Malme-3M it was > 100 µM (inactive); in the assay on NCI-H226, > 100 µM (inactive); in the assay on NCI-H23, > 100 µM (inactive); with OVCAR-3, 1.05 µM (active); in the assay on OVCAR-5, > 100 µM (inactive). Further, the GI50 with PC-3, in the assay on RPMI-8226, in the assay with SF-268, in the assay on SK-MEL-2, in the assay with SW-620 and in the assay on U-251 was > 100 µM (inactive) in each case.
